# “And” between values parts separate entries of the source, which are not always exact repeats. Equal values may be shown once. The source made the active and inactive calls. No cut-off for these calls is given here.
# Assays:
# SH-SY5Y [1] = test: Cytotoxicity against non-differentiated human SH-SY5Y cells assessed as reduction in cell viability measured after 24 hrs by MTT reduction assay relative to control; assay type: functional; design: concentration or dose not given beside the values
# SH-SY5Y [2] = test: Cytotoxicity against differentiated human SH-SY5Y cells assessed as reduction in cell viability at 100 uM measured after 48 hrs by MTT reduction assay relative to control; assay type: functional
# SH-SY5Y [3] = test: Neuroprotective activity against Amyloid beta(25 to 35)-induced cell injury in non-differentiated human SH-SY5Y cells assessed as reduction in formation of protein aggregates at 100 uM incubated for 24 hrs by ThT fluorescence assay; assay type: functional; design: scale not given: the % may be the effect or the level left
# SH-SY5Y [4] = test: Neuroprotective activity against 6-OHDA-induced cytotoxicity in differentiated human SH-SY5Y cells at 100 uM incubated for 48 hrs followed by exposure to 6-OHDA by MTT reduction assay; assay type: functional, cell-based
# SH-SY5Y [5] = test: Neuroprotective activity against 6-OHDA-induced cytotoxicity in differentiated human SH-SY5Y cells at 100 uM incubated for 48 hrs followed by exposure to 6-OHDA in presence of glypromate by MTT reduction assay; assay type: functional, cell-based
# SH-SY5Y [6] = test: Neuroprotective activity against 6-OHDA-induced cytotoxicity in differentiated human SH-SY5Y cells at 100 uM incubated for 48 hrs followed by exposure to 6-OHDA by MTT reduction assay (reference value: 61.50+/-7.43%); assay type: functional; design: scale not given: the % may be the effect or the level left
# SH-SY5Y [7] = test: Neuroprotective activity in Amyloid beta(25 to 35)-induced non-differentiated human SH-SY5Y cells assessed as fold increase in protein aggregation reduction 100 uM incubated for 24 hrs by ThT fluorescence assay; assay type: functional
# SH-SY5Y [8] = test: Neuroprotective activity against Amyloid beta(25 to 35)-induced cell injury in non-differentiated human SH-SY5Y cells assessed as reduction in formation of protein aggregates at 100 uM incubated for 24 hrs by fluorescence microscopy based analysis; assay type: functional
# SH-SY5Y [9] = test: Neuroprotective activity against Amyloid beta(25 to 35)-induced cell injury in non-differentiated human SH-SY5Y cells assessed as reduction in formation of protein aggregates at 100 uM incubated for 24 hrs in presence of glypromate by ThT fluorescence assay; assay type: functional; design: scale not given: the % may be the effect or the level left
# SH-SY5Y [10] = test: Neuroprotective activity against 6-OHDA-induced cytotoxicity in differentiated human SH-SY5Y cells at 100 uM incubated for 48 hrs followed by exposure to 6-OHDA in presence of memantine by MTT reduction assay; assay type: functional, cell-based
Structure (SMILES),Activity (SH-SY5Y [1]),Activity (SH-SY5Y [2]),Activity (SH-SY5Y [3]),also measured
COC(=O)CC[C@H](NC(=O)[C@@H]1CCCCN1C(=O)CNC(=O)OC(C)(C)C)C(=O)N[C@@H]1CCc2ccccc21,97.28%,99.35%,120.05%,
COC(=O)CC[C@H](NC(=O)[C@@H]1CCCCN1C(=O)CN)C(=O)NC12CC3CC(CC(C3)C1)C2.O=C(O)C(F)(F)F,92.68%,97.33%,132.48%,
COC(=O)[C@H](CCC(=O)NC12CC3CC(CC(C3)C1)C2)NC(=O)[C@@H]1CCCN1C(=O)CNC(=O)OC(C)(C)C,<85%,,,
CC12CC3CC(C)(C1)CC(N)(C3)C2,,,,Activity (SH-SY5Y [4]): inactive; Activity (SH-SY5Y [5]): inactive
COC(=O)[C@H](CCC(=O)NC12CC3CC(CC(C3)C1)C2)NC(=O)[C@@H]1CCCCN1C(=O)CNC(=O)OC(C)(C)C,92.96%,91.13%,127.26%,
COC(=O)CC[C@H](NC(=O)[C@@H]1CCCCN1C(=O)CNC(=O)OC(C)(C)C)C(=O)NC12CC3CC(CC(C3)C1)C2,92.73%,101.45%,133.03%,
COC(=O)CC[C@H](NC(=O)[C@@H]1CCCCN1C(=O)CN(C)C)C(=O)NC12CC3CC(C)(CC(C)(C3)C1)C2,<85%,<25%,,
COC(=O)[C@H](CCC(=O)NC12CC3CC(C)(CC(C)(C3)C1)C2)NC(=O)[C@@H]1CCCCN1C(=O)CN.O=C(O)C(F)(F)F,<85%,<25%,,
COC(=O)CC[C@H](NC(=O)[C@@H]1CCCCN1C(=O)CN)C(=O)NC12CC3CC(C)(CC(C)(C3)C1)C2.O=C(O)C(F)(F)F,<85%,<25%,,
COC(=O)CC[C@H](NC(=O)[C@@H]1CCCN1C(=O)CN(C)C)C(=O)NC12CC3CC(CC(C3)C1)C2,91.14%,107.67%,79.52%,Activity (SH-SY5Y [6]): 68.03%
COC(=O)[C@H](CCC(=O)N[C@@H]1CCc2ccccc21)NC(=O)[C@@H]1CCCN1C(=O)CN.O=C(O)C(F)(F)F,94.4%,98.02%,57.42%,fold change (FC) (SH-SY5Y [7]): 3.6; Activity (SH-SY5Y [8]): Active
COC(=O)CC[C@H](NC(=O)[C@@H]1CCCN1C(=O)CN)C(=O)NC12CC3CC(C)(CC(C)(C3)C1)C2.O=C(O)C(F)(F)F,<85%,97.3%,,
COC(=O)CC[C@H](NC(=O)[C@@H]1CCCCN1C(=O)CNC(=O)OC(C)(C)C)C(=O)NC12CC3CC(C)(CC(C)(C3)C1)C2,<85%,94.5%,,
COC(=O)CC[C@H](NC(=O)[C@@H]1CCCN1C(=O)CNC(=O)OC(C)(C)C)C(=O)N[C@@H]1CCc2ccccc21,<85%,,,
COC(=O)[C@H](CCC(=O)NC12CC3CC(CC(C3)C1)C2)NC(=O)[C@@H]1CCCCN1C(=O)CN.O=C(O)C(F)(F)F,87.9%,,,
COC(=O)[C@H](CCC(=O)N[C@@H]1CCc2ccccc21)NC(=O)[C@@H]1CCCCN1C(=O)CN(C)C,,,,Activity (SH-SY5Y [1]; 24 h): 97.03% and <85%
COC(=O)[C@H](CCC(=O)NC12CC3CC(C)(CC(C)(C3)C1)C2)NC(=O)[C@@H]1CCCCN1C(=O)CNC(=O)OC(C)(C)C,<85%,91.53%,,
COC(=O)[C@H](CCC(=O)N[C@@H]1CCc2ccccc21)NC(=O)[C@@H]1CCCN1C(=O)CNC(=O)OC(C)(C)C,<85%,,,
COC(=O)CC[C@H](NC(=O)[C@@H]1CCCN1C(=O)CNC(=O)OC(C)(C)C)C(=O)NC12CC3CC(C)(CC(C)(C3)C1)C2,<85%,,,
N[C@@H]1CCc2ccccc21,,,38%,Activity (SH-SY5Y [9]): 79.68%

Structure (SMILES),Activity (SH-SY5Y [1]),Activity (SH-SY5Y [2]),Activity (SH-SY5Y [3]),also measured
COC(=O)[C@H](CCC(=O)N[C@@H]1CCc2ccccc21)NC(=O)[C@@H]1CCCN1C(=O)CN(C)C,99.51%,99.49%,81.51%,
COC(=O)[C@H](CCC(=O)NC12CC3CC(C)(CC(C)(C3)C1)C2)NC(=O)[C@@H]1CCCN1C(=O)CN(C)C,<85%,99.94%,,Activity (SH-SY5Y [6]): 65.16%
COC(=O)CC[C@H](NC(=O)[C@@H]1CCCN1C(=O)CN)C(=O)NC12CC3CC(CC(C3)C1)C2.O=C(O)C(F)(F)F,94.84%,109.73%,,Activity (SH-SY5Y [6]): 67.28%
COC(=O)CC[C@H](NC(=O)[C@@H]1CCCN1C(=O)CNC(=O)OC(C)(C)C)C(=O)NC12CC3CC(CC(C3)C1)C2,89.28%,,80.35%,
COC(=O)CC[C@H](NC(=O)[C@@H]1CCCN1C(=O)CN)C(=O)N[C@@H]1CCc2ccccc21.O=C(O)C(F)(F)F,87.33%,98.44%,62.25%,Activity (SH-SY5Y [6]): 65.5%; fold change (FC) (SH-SY5Y [7]): 3.2; Activity (SH-SY5Y [8]): Active
COC(=O)CC[C@H](NC(=O)[C@@H]1CCCCN1C(=O)CN)C(=O)N[C@@H]1CCc2ccccc21.O=C(O)C(F)(F)F,94.96%,98.85%,129.25%,
COC(=O)[C@H](CCC(=O)NC12CC3CC(CC(C3)C1)C2)NC(=O)[C@@H]1CCCN1C(=O)CN(C)C,86.22%,,,
COC(=O)CC[C@H](NC(=O)[C@@H]1CCCN1C(=O)CN(C)C)C(=O)NC12CC3CC(C)(CC(C)(C3)C1)C2,<85%,103.96%,,Activity (SH-SY5Y [6]): 70.93%
NCC(=O)N1CCC[C@H]1C(=O)N[C@@H](CCC(=O)O)C(=O)O,,,87.78%,Activity (SH-SY5Y [10]): inactive
COC(=O)CC[C@H](NC(=O)[C@@H]1CCCN1C(=O)CN(C)C)C(=O)N[C@@H]1CCc2ccccc21,93.5%,104.91%,69.21%,
COC(=O)[C@H](CCC(=O)NC12CC3CC(CC(C3)C1)C2)NC(=O)[C@@H]1CCCN1C(=O)CN.O=C(O)C(F)(F)F,89.04%,,,
COC(=O)[C@H](CCC(=O)NC12CC3CC(C)(CC(C)(C3)C1)C2)NC(=O)[C@@H]1CCCN1C(=O)CNC(=O)OC(C)(C)C,<85%,,,
COC(=O)[C@H](CCC(=O)NC12CC3CC(CC(C3)C1)C2)NC(=O)[C@@H]1CCCCN1C(=O)CN(C)C,<85%,<25%,,
COC(=O)CC[C@H](NC(=O)[C@@H]1CCCCN1C(=O)CN(C)C)C(=O)N[C@@H]1CCc2ccccc21,,94.5%,,Activity (SH-SY5Y [1]; 24 h): 95.12% and <85%
COC(=O)[C@H](CCC(=O)N[C@@H]1CCc2ccccc21)NC(=O)[C@@H]1CCCCN1C(=O)CN.O=C(O)C(F)(F)F,89.37%,,,
COC(=O)CC[C@H](NC(=O)[C@@H]1CCCCN1C(=O)CN(C)C)C(=O)NC12CC3CC(CC(C3)C1)C2,93.57%,,,
COC(=O)[C@H](CCC(=O)NC12CC3CC(C)(CC(C)(C3)C1)C2)NC(=O)[C@@H]1CCCN1C(=O)CN.O=C(O)C(F)(F)F,<85%,,,
COC(=O)[C@H](CCC(=O)N[C@@H]1CCc2ccccc21)NC(=O)[C@@H]1CCCCN1C(=O)CNC(=O)OC(C)(C)C,96.69%,,120.77%,
COC(=O)[C@H](CCC(=O)NC12CC3CC(C)(CC(C)(C3)C1)C2)NC(=O)[C@@H]1CCCCN1C(=O)CN(C)C,<85%,<25%,,

# Reference: ChEMBL document CHEMBL5543091, “Exploring structural determinants of neuroprotection bias on novel glypromate conjugates with bioactive amines” (2024)
